Assay results published in PMC6268314, “Diterpenoids from the Buds of Pinus banksiana Lamb” (Molecules, 2012).

Key:
Format in all cases: cell-based
[1] = test system: WS1, human normal skin fibroblasts; assay: Cytotoxicity assay (Hoechst DNA assay), WS1; conditions: Skin fibroblast, concentration inhibiting 50% cell growth, 48 h, mean of three independent assays
Method: (§1) P. banksiana buds were extracted successively with hexanes, CH2Cl2 and MeOH. After solvent evaporation, each extract was investigated for in vitro cytotoxic and antibacterial activities. Cytotoxic activity evaluations were carried out on lung cancer (A549), colorectal cancer (DLD-1) and normal skin fibroblasts (WS1) human cell lines using the Hoechst assay. Antibacterial activity was evaluated against Escherichia coli and Staphylococcus aureus. […] Therefore, following studies were focused on the CH2Cl2 extract that was further separated over column chromatography on silica gel to afford eleven fractions (A–K). All fractions activities were tested against both cancer cell lines and bacterial strains. […] In a next step, fractions F, G, H and K were separated by a combination of chromatographic procedures to afford the three new compounds 1–3 together with 12 known compounds. The structures of the new compounds were determined as follows and the known products were identified by comparison of their spectroscopic data with values found in the literature.
(§2) Lung carcinoma (A549), colorectal adenocarcinoma (DLD-1) and normal skin fibroblast (WS1) human cell lines were obtained from the American Type Culture Collection (ATCC). All cell lines were cultured in minimum essential medium containing Earle’s salts and L-glutamine (Mediatech Cellgro, VA, USA), to which were added 10% fetal bovine serum (Hyclone), vitamins (1X), penicillin (100 I.U./mL) and streptomycin (100 µg/mL), essential amino acids (1X) and sodium pyruvate (1X) (Mediatech Cellgro, VA). Cells were kept at 37 °C in a humidified environment containing 5% CO2. Antibacterial activity was tested on Escherichia coli ATCC 25922 and Staphylococcus aureus ATCC 25923E.
Exponentially growing cells were plated on 96-well microplates (BD Falcon) at a density of 5 × 10^3 cells per well in 100 μL of culture medium (DMEM with 10% SVF) and were allowed to adhere for 24 h before treatment. Increasing concentrations of each compound in MeOH or DMSO were then added (100 μL per well) and cells were incubated for 48 h. The final concentration of MeOH or DMSO in the culture medium was maintained at 0.25% (v/v) to avoid solvent toxicity. Microplates were then emptied and stored at −80 °C for 24 h. In a next step, 100 μL of SDS (0.01%) were added and the microplates were incubated at room temperature during 3 h before being put back to the cold. After 24 h, cells were prepared for cellular DNA assay with 100 μL of Hoechst dye 33342. Measurements were performed on the same labsystems at 365 and 460 nm wavelengths. Survival percentage was defined as the fluorescene in experimental wells compared to the control wells after subtraction of the blank values. Etoposide was used as positive control. […] IC50 results were expressed as averaged values and the corresponding standard deviations were computed.

[2] = test system: A549, human lung carcinoma cell line; assay: Cytotoxicity assay (Hoechst DNA assay), A549; conditions: for IC50: Homo sapiens, A549, concentration inhibiting 50% cell growth, 48 h, mean of three independent assays
Method: as §1, §2
(§3) Exponentially growing cells were plated on 96-well microplates (BD Falcon) at a density of 5 × 10^3 cells per well in 100 μL of culture medium (DMEM with 10% SVF) and were allowed to adhere for 24 h before treatment. Increasing concentrations of each compound in MeOH or DMSO were then added (100 μL per well) and cells were incubated for 48 h. The final concentration of MeOH or DMSO in the culture medium was maintained at 0.25% (v/v) to avoid solvent toxicity. Microplates were then emptied and stored at −80 °C for 24 h. In a next step, 100 μL of SDS (0.01%) were added and the microplates were incubated at room temperature during 3 h before being put back to the cold. After 24 h, cells were prepared for cellular DNA assay with 100 μL of Hoechst dye 33342. Measurements were performed on the same labsystems at 365 and 460 nm wavelengths. Survival percentage was defined as the fluorescene in experimental wells compared to the control wells after subtraction of the blank values. Etoposide was used as positive control. Each experiment was carried out two times in triplicata. IC50 results were expressed as averaged values and the corresponding standard deviations were computed.

[3] = test system: DLD-1, human colorectal adenocarcinoma cell line; assay: Cytotoxicity assay (Hoechst DNA assay), DLD-1; conditions: concentration inhibiting 50% cell growth, 48 h, mean of three independent assays; for IC50: Homo sapiens, DLD-1
Method: as §1, §2, §3

[4] = test system: Staphylococcus aureus ATCC 25923; assay: Antibacterial microdilution assay (resazurin), S. aureus; conditions: 6 h at 37 °C
Method: as §2
(§4) Antibacterial activity was evaluated using the microdilution method described by Banfi et al. with some modifications. Exponentially growing bacteria were plated in 96-well flat bottom microplates (BD Flacon) at a density of 5 × 10^3 gram-negative E. coli (ATCC 25922) or 40 × 10^3 gram-positive S. aureus (ATCC 25923) per well in 100 μL nutrient broth (Difco). The concentration of ethanol in the culture medium was maintained at 0.25% (v/v) to avoid solvent toxicity. Thereafter, 50 μL of 4% resazurin was added to each well and the microplates were incubated for 6 h at 37 °C. Fluorescence was measured after 6 h with an automated 96-well Fluoroskan Ascent Fl™ plate reader (Labsystems) using 530 and 590 nm excitation and emission wavelengths.

[5] = test system: Escherichia coli ATCC 25922; assay: Antibacterial microdilution assay (resazurin), E. coli; conditions: 6 h at 37 °C
Method: as §2, §4

| IC50 ([4]; ATCC25923, isolated compounds) | IC50 ([5]; ATCC25922, isolated compounds) | IC50 ([4]; ATCC25923, extracts and fractions) | IC50 ([5]; ATCC25922, extracts and fractions) | Structure (SMILES) | IC50 ([1]; extracts and fractions) | IC50 ([1]; isolated compounds) | IC50 ([2]; extracts and fractions) | IC50 ([2]; isolated compounds) | IC50 ([3]; extracts and fractions) | IC50 ([3]; isolated compounds) | cytotoxicity against lung carcinoma A549 (in words) ([2]; isolated compounds) | IC50 DLD-1 ([3]; isolated compounds) |
| --- | --- | --- | --- | --- | --- | --- | --- | --- | --- | --- | --- | --- |
| > 100 µM | > 100 µM | – | – | C=C(C)c1ccc2c(c1)[C@H](O)CC1[C@](C)(C(=O)O)CCC[C@]21C (stereo partly drawn) [Compound 1, 7α-hydroxyabieta-8,11,13,15-tetraen-18-oic acid] | – | > 100 µM | – | > 100 µM | – | > 100 µM | – | – |
| > 100 µM | > 100 µM | – | – | CC(C)(O)c1ccc2c(c1)[C@H](O)CC1[C@](C)(C(=O)O)CCC[C@]21C (stereo partly drawn) [Compound 5, 7α,15-dihydroxydehydroabietic acid] | – | > 100 µM | – | > 100 µM | – | > 100 µM | – | – |
| > 5 µM | 0.37 ± 0.06 µM | > 1.6 µg/mL | 0.12 ± 0.02 µg/mL | O=C(N[C@H](CO)[C@H](O)c1ccc([N+](=O)[O-])cc1)C(Cl)Cl [Chloramphenicol, reference compound] | – | – | – | – | – | – | – | – |
| > 100 µM | > 100 µM | – | – | CC(C)c1ccc2c(c1)[C@@H](O)CC1[C@](C)(O)CCC[C@]21C (stereo partly drawn) [Compound 9, 18-nor-abieta-8,11,13-triene-4,7β-diol] | – | > 100 µM | – | > 100 µM | – | > 100 µM | – | – |
| > 100 µM | > 100 µM | – | – | CC(C)(O)c1ccc2c(c1)C(O)CC1C(C)(CO)CCCC21C (stereo not drawn) [Compound 2, 7β,15,18-trihydroxyabieta-8,11,13-triene] | – | > 100 µM | – | > 100 µM | – | > 100 µM | – | – |

Continued, compound first:

| Structure (SMILES) | IC50 ([4]; ATCC25923, isolated compounds) | IC50 ([5]; ATCC25922, isolated compounds) | IC50 ([4]; ATCC25923, extracts and fractions) | IC50 ([5]; ATCC25922, extracts and fractions) | IC50 ([1]; extracts and fractions) | IC50 ([1]; isolated compounds) | IC50 ([2]; extracts and fractions) | IC50 ([2]; isolated compounds) | IC50 ([3]; extracts and fractions) | IC50 ([3]; isolated compounds) | cytotoxicity against lung carcinoma A549 (in words) ([2]; isolated compounds) | IC50 DLD-1 ([3]; isolated compounds) |
| --- | --- | --- | --- | --- | --- | --- | --- | --- | --- | --- | --- | --- |
| COc1cc([C@@H]2c3cc4c(cc3[C@@H](O[C@@H]3O[C@@H]5CO[C@@H](C)O[C@H]5[C@H](O)[C@H]3O)[C@H]3COC(=O)[C@H]23)OCO4)cc(OC)c1O [Etoposide, reference compound] | – | – | – | – | 5.9 ± 0.6 µg/mL | 10 ± 2 µM | 0.4 ± 0.2 µg/mL | 0.7 ± 0.3 µM | 1.7 ± 0.3 µg/mL | 2.9 ± 0.5 µM | – | – |
| CC(C)(O)c1ccc2c(c1)CC[C@H]1[C@](C)(C(=O)O)CCC[C@]21C [Compound 7, 15-hydroxydehydroabietic acid] | > 100 µM | > 100 µM | – | – | – | > 100 µM | – | 98 ± 2 µM | – | > 100 µM | – | – |
| CC(C)c1ccc2c(c1)[C@H](O)CC1[C@](C)(O)CCC[C@]21C (stereo partly drawn) [Compound 8, 18-nor-abieta-8,11,13-triene-4,7α-diol] | > 100 µM | > 100 µM | – | – | – | > 100 µM | – | 63 ± 7 µM | – | 91 ± 9 µM | – | – |
| CC(C)c1ccc2c(c1)[C@H](O)CC1[C@](C)(C(=O)O)CCC[C@]21C (stereo partly drawn) [Compound 10, 7α-hydroxydehydroabietic acid] | > 100 µM | > 100 µM | – | – | – | > 100 µM | – | > 100 µM | – | > 100 µM | – | – |
| CC(C)(O)c1ccc2c(c1)C(=O)CC1[C@](C)(CO)CCC[C@]21C (stereo partly shown) [Compound 14, 15,18-dihydroxyabieta-8,11,13-trien-7-one] | > 100 µM | > 100 µM | – | – | – | > 100 µM | – | > 100 µM | – | > 100 µM | – | – |
| CC(C)c1ccc2c(c1)[C@@H](O)CC1[C@](C)(C(=O)O)CCC[C@]21C (stereo partly drawn) [Compound 11, 7β-hydroxydehydroabietic acid] | > 100 µM | > 100 µM | – | – | – | > 100 µM | – | > 100 µM | – | > 100 µM | – | – |
| C[C@@]1(CO)CCC[C@]2(C)c3ccc(O)cc3CCC12 (stereo partly shown) [Compound 3] | > 100 µM | > 100 µM | – | – | – | > 100 µM | – | > 100 µM | – | > 100 µM | – | – |
| CC(C)c1ccc2c(c1)C(=O)C[C@H]1[C@](C)(CO)CCC[C@]21C [Compound 12, 7-oxodehydroabietinol] | > 100 µM | > 100 µM | – | – | – | > 100 µM | – | 34 ± 4 µM | – | 47 ± 9 µM | moderate cytotoxicity | – |
| CC(C)(O)c1ccc2c(c1)C(=O)C[C@H]1[C@](C)(O)CCC[C@]21C [Compound 13, 18-nor-4,15-dihydroxyabieta-8,11,13-trien-7-one] | > 100 µM | > 100 µM | – | – | – | > 100 µM | – | 46 ± 3 µM | – | > 100 µM | moderate cytotoxicity | not to DLD-1 |
| CC(C)(O)c1ccc2c(c1)[C@H](O)CC1[C@](C)(C=O)CCC[C@]21C (stereo partly drawn) [Compound 4, 7α,15-dihydroxyabieta-8,11,13-trien-18-al] | > 100 µM | > 100 µM | – | – | – | > 100 µM | – | > 100 µM | – | > 100 µM | – | – |
| CC(C)(O)c1ccc2c(c1)[C@@H](O)CC1[C@](C)(C(=O)O)CCC[C@]21C (stereo partly drawn) [Compound 6, 7β,15-dihydroxydehydroabietic acid] | > 100 µM | > 100 µM | – | – | – | > 100 µM | – | > 100 µM | – | > 100 µM | – | – |
| CC(C)(O)c1ccc2c(c1)C(=O)CC1[C@](C)(C(=O)O)CCC[C@]21C (stereo partly shown) [Compound 15, 15-hydroxy-7-oxo-abieta-8,11,13-trien-18-oic acid] | > 100 µM | > 100 µM | – | – | – | > 100 µM | – | > 100 µM | – | > 100 µM | – | – |
